In data set [1] the test system is primary human fibroblasts. Briefly: Variations of mitochondrial relationship with the cytoskeleton (area containing entwined mitochondria). The note with it: area containing entwined mitochondria in percent of total cell area; FIG. 4 for paclitaxel.
Data set [2] relates to primary human fibroblasts. The experiment in a line: Variations of mitochondrial morphology (mitochondria length, doughnut formation). In kind it is cell-based. The conditions noted are these: 0.1 to 10 μM, in percent of the vehicle. From the text:
Measured parameters can include, but are not restricted to, the length of the mitochondria allowing for an appreciation of the equilibrium between fusion and fission, the number of mitochondria in a doughnut shape per cell, the number of mitochondrial derived vesicle per cell and the number of mitochondria undergoing swelling/aggregation per cell.
(§1) Images were captured for 20-40 frames every 3-15 sec on a z scale spanning 1 μm around the initial center of focus. Z slides were reconstructed to generate a movie that was further analyzed for mitochondrial tracking, shape recognition, length measurements and intensities measurements.
Changes in mitochondrial morphology, i.e. in the mitochondria length and in the formation of doughnuts, were observed associated with compound toxicity in a dose dependent manner.
The mitochondria length and the formation of doughnuts are two parameters which indicate the dynamic modulation of the fission-fusion phenomenon that occurs in the mitochondria. When very short, the mitochondria cannot assume a doughnut shape anymore, thus making the loss of the doughnut shapes a signal very significant of a toxicity than cannot be compensate by the fission-fusion dynamics. When the equilibrium of fission-fusion is impaired the fragmentation of the mitochondria is associated with neurodegeneration (Knott et al., 2008).

Data set [3] concerns primary human fibroblasts. Briefly: Variations of mitochondrial motility. In kind it is cell-based. The note with it: 0.1 μM, 30 minutes to 16 hours at 37° C, vs vehicle; FIG. 2. The method, then:
The speed of an organelle' movements is measured by the displacement in μm of this organelle within the lapse of two captured frames. This measure is repeated over the total length of the image capture. Speed can be expressed as an average velocity observed for an organelle over the duration of the capture or by the maximal velocity observed for an organelle over the same duration.
The amplitude of organelle movements is expressed as a variable of the frequency of bursts in the total displacement of one organelle. A burst is defined as a sudden displacement within 30% of the maximal displacements of an organelle during the period of capture.
The frequency of organelle movements is expressed as a number of periods during which the organelle remains immobile.
as §1
Mitochondrial displacement was assessed by the measure of the mitochondrial velocity, the amplitude of its movement and particularly the frequency of bursts and the frequency of movements represented by the periods of movement arrests (FIG. 2). […]

Counter-ions that a name gives are not always drawn.

Consider `Cc1ccc(NC(=O)c2ccc(CN3CCN(C)CC3)cc2)cc1Nc1nccc(-c2cccnc2)n1` [imatinib mesylate], for which, in data set [1], the “variation of mitochondrial relationship with the cytoskeleton” value was “did not induce any variation”. Also, the “variations of mitochondria length” value in data set [2] (FIG. 3A) is “induced variations”. The “variations of the formation of doughnuts” value in data set [2] (FIG. 3B) is “induced variations”. Moreover, in data set [3], the “number of immobilization periods of mitochondria” value is recorded as “increasing the number of immobilization periods of mitochondria” and the “variations of the mitochondrial motility” value is recorded as “induced variations of the mitochondrial motility”.
For the molecule `CC(=O)O[C@H]1C(=O)[C@@]2(C)[C@H]([C@H](OC(=O)c3ccccc3)[C@]3(O)C[C@H](OC(=O)[C@H](O)[C@@H](NC(=O)c4ccccc4)c4ccccc4)C(C)=C1C3(C)C)[C@]1(OC(C)=O)CO[C@@H]1C[C@@H]2O` [paclitaxel], the “variation of mitochondrial relationship with the cytoskeleton” value in data set [1] is recorded as “affected the relationship of mitochondria with cytoskeleton in a dose-dependent manner”.

(Values after patent publication US8497089B2, “Method to predict toxicity using the analysis of dynamic organelle behaviour” (Innovative Concepts in Drug Development (ICDD), priority 2007, dated 2013).)
